Laboratory results taken from PMC1192819, “Molecular cloning and characterization of a nuclear androgen receptor activated by 11-ketotestosterone” (Reproductive biology and endocrinology : RB&E, 2005).

Key:
stickleback ARβ2 = assay: ARE-luciferase trans-activation assay, stickleback ARβ2 in transfected HepG2 and ZFL cells; type: cell-based, three-spined stickleback (Gasterosteus aculeatus); details: for induction of luciferase activity: 40 h, versus control
Protocol: Two liver epithelial cell lines were used to test receptor activity. HepG2 cells (ATCC, Manassas, VA) were maintained in DMEM supplemented with 10% FCS and non-essential amino acids. ZFL cells (ATCC) were maintained in 50% L-15 Leibovitz, 15% […] and 35% DMEM supplemented with 10% FCS (Gibco, Paisley, Scotland, UK) and 50 ng ml-1 EGF (Sigma). Cells were cultured at 37°C (HepG2) or 28°C (ZFL) in 5% CO2. The transfection experiments were initiated by replacing the tissue culture medium with fresh phenol-free medium supplemented with charcoal stripped FCS and the cells were seeded on 24-well plates. Transfections were performed at 90–95% confluence using 1,5 μl Lipofectamine 2000 (Invitrogen, Carlsbad, CA, USA) and 0,6 μg DNA per well. Transfected DNA contained 60 ng pRL (Promega), 270 ng androgen response element (ARE) luciferase reporter vector, 270 ng stickleback ARβ2 expression vector or 270 ng human AR expression vector (pCMVhAR) while 270 ng empty TNT cloning vector was used to control background luciferase levels following transfections. Two different ARE containing promoter constructs were tested, one containing 3 separate ARE (HRE; slp-ARU) and a second one construct (slp-HRE2) containing 4 copies of the ARE with high affinity for R1881, a synthetic androgen, and low affinity for dexamethasone, a synthetic glucocorticoid.
After 16 h the transfection medium was replaced with fresh phenol-free medium, supplemented with charcoal stripped FCS, containing different steroid hormones. The cells were exposed to the hormones for 40 h and luciferase levels were detected using the Dual Luciferase Assay kit (Promega) in a TD 20/20 Luminometer (Turner Designs, Sunnyvale, CA). For each cell line, transfection assay was performed for each concentration with n = 4 and the luciferase value of each assay were normalized to its corresponding Renilla luciferase activity. Each experiment was repeated a minimum of 3 times. The fold-induction is presented as luciferase values normalized against the control. The control levels were arbitrarily set to 1.0 for each cell line.

[1] = tested on: spiggin mRNA in adult female stickleback kidney; assay: Induction of spiggin mRNA in stickleback kidney after steroid implants (slot blot); type: in vivo, three-spined stickleback (Gasterosteus aculeatus); details: females
Protocol: The fish were anesthetized with 0.1% (v/v) 2-phenoxyethanol (Sigma, St. Louis, MO, USA) and implanted intraperitoneally with Silclear silicone tubing (10-mm length, 0.6-mm inner diameter, 1.2-mm outer diameter) containing steroids dissolved in cocoa butter. […] KA was used as this steroid is converted into KT by the fish. Tubes containing cocoa butter alone were used as controls. Following implantation the fish were maintained in 50-liter aquaria containing brackish water (0.5% salinity) at 20°C under LD 16:8 h. At sampling fish were decapitated and the kidneys were excised, frozen using liquid nitrogen, and stored at -70°C. A number of experiments were performed as follows. Spiggin mRNA was measured in post-breeding females that were dissected 2 days following implantation of tubes. Cytosolic androgen-receptors were measured in females and in castrated males. Males were castrated under anesthesia as above, by making a 1.5 mm long incision into the abdominal cavity on each side and removing the testes using forceps. The females and the castrated males were implanted with control and high dose tubes and dissected after 6 days. AR mRNA was studied in females implanted for 12 h, 2 and 16 days (separate experiments) with control and high dose tubes and in males castrated as above and implanted for 10 days with control tubes and high doses of KA or E2.
Total RNA was extracted using Tri Reagent™ (Sigma). Aliquots of 10 μg of total RNA were mixed with denaturing solution (6 × SSC, 7% (v/v) formaldehyde) and transferred onto a nylon membrane (Amersham Pharmacia Biotech) using a Minifold II Slot Blot Apparatus (Schleicher and Schuell, Keene, NH, USA). Membranes were probed using either a randomly primed [α-^32P]-dCTP radiolabelled AR cDNA fragment (918 base pairs) that was isolated by reverse transcriptase-polymerase chain reaction and sequenced as above, or a randomly primed [α-^32P]-dCTP radiolabelled spiggin-α cDNA. Hybridizations were performed at 65°C overnight (6 × SCC, 0.1% (w/v) SDS, 100 μg ml^-1 tRNA, and 5 × Denhardt's solution). The membranes were washed for 2 × 30 minutes at 42°C and 65°C in 0.1 × SCC, 0.1% (w/v) SDS whereafter Hyperfilm™-MP film was exposed at -70°C. The films were visualized using Curix 60 Film Developer. Following AR and spiggin mRNA determination the membranes were stripped and analyzed for 18S rRNA using a cDNA fragment as internal control. Each AR or spiggin transcript was then semi-quantified using Quantity ONE 4.2.3 (Bio-Rad, Laboratories, Inc, Hercules, CA, USA) in relation to its internal 18S transcript.

[2] = molecular target: T1, AR in stickleback kidney cytosolic extracts (Gasterosteus aculeatus, UniProt Q801Z1); assay: Ligand competition assay with 1 nM [3H]-DHT, kidney cytosolic extracts; type: binding, three-spined stickleback (Gasterosteus aculeatus); details: overnight 4°C, read-out: EC50 (competition for [3H]-DHT binding)
T1 sequence (Q801Z1 1-682): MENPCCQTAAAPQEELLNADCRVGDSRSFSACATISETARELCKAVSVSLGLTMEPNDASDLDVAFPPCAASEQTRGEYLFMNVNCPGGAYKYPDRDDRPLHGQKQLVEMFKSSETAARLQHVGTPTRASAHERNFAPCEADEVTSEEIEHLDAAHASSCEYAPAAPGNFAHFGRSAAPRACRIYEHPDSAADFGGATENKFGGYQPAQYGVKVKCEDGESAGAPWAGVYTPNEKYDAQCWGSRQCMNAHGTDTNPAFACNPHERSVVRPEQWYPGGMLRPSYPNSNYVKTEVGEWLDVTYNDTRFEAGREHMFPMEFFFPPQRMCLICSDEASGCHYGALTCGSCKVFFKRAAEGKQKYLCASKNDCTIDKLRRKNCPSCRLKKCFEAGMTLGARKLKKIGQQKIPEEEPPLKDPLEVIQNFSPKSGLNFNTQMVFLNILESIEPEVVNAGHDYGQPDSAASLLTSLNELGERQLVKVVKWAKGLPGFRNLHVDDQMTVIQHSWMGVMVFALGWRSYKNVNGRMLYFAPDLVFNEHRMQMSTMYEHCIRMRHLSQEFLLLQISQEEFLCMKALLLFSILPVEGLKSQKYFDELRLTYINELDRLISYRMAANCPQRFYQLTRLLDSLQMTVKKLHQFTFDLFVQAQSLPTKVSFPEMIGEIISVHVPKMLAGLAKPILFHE
Protocol: The steroid specificity of receptor binding was examined using a competitive binding assay. […] Following incubation, the reaction was terminated by addition of DCC and centrifugation and the specific binding in each tube was determined as described above.

## C[C@]12CC(=O)[C@H]3[C@@H](CCC4=CC(=O)CC[C@@]43C)[C@@H]1CC[C@@H]2O [KT, 11-ketotestosterone]
Stickleback ARβ2; HepG2 cells
  induction of luciferase activity: 10 fold
Stickleback ARβ2; HepG2 or ZFL cells, slp-ARU or slp-ARE reporter
  potency in activating the luciferase reporter gene relative to DHT: 3 fold
Stickleback ARβ2; ZFL cells, 10^-8 M of each steroid
  activation of stickleback AR compared with other androgens: preferentially activated
Stickleback ARβ2; ZFL cells
  induction of luciferase activity: 12 fold
[1]; 1 μg implant dose
  potency in spiggin induction relative to DHT: 23 times
[1]; 25 μg implant dose
  effectiveness at increasing kidney spiggin mRNA levels relative to T: 50 times
[2]
  EC50: 42.8 ± 3.42 nM
